Experimental data taken from PubChem BioAssay (NCI).
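48-hour exposure; five concentrations; linearly interpolated endpoints. The concentration for 50% growth inhibition is given as GI50. TGI: concentration producing complete growth inhibition.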

Key:
Test in all cases: NCI tumour cell line growth inhibition, 48 h
T-47D breast = tested on: T-47D breast
NCI-H460 lung = tested on: NCI-H460 lung
LOX IMVI melanoma = tested on: LOX IMVI melanoma
OVCAR-3 ovarian = tested on: OVCAR-3 ovarian
HCT-116 colon = tested on: HCT-116 colon
SK-MEL-28 melanoma = tested on: SK-MEL-28 melanoma
OVCAR-5 ovarian = tested on: OVCAR-5 ovarian
SN12C renal = tested on: SN12C renal
786-0 renal = tested on: 786-0 renal
MDA-MB-435 = tested on: MDA-MB-435
A549 NSCLC = tested on: A549 NSCLC
SK-MEL-5 melanoma = tested on: SK-MEL-5 melanoma
IGROV1 ovarian = tested on: IGROV1 ovarian
HS 578T breast = tested on: HS 578T breast
RXF 393 renal = tested on: RXF 393 renal
NCI-H226 lung = tested on: NCI-H226 lung
A498 renal = tested on: A498 renal
BT-549 breast = tested on: BT-549 breast
HCC-2998 colon = tested on: HCC-2998 colon
CAKI-1 renal = tested on: CAKI-1 renal
HCT-15 colon = tested on: HCT-15 colon
HOP-92 NSCLC = tested on: HOP-92 NSCLC
SF-268 CNS = tested on: SF-268 CNS
SK-MEL-2 melanoma = tested on: SK-MEL-2 melanoma
COLO 205 colon = tested on: COLO 205 colon
OVCAR-8 ovarian = tested on: OVCAR-8 ovarian
SW-620 colon = tested on: SW-620 colon
SNB-75 CNS = tested on: SNB-75 CNS
HOP-62 NSCLC = tested on: HOP-62 NSCLC
CCRF-CEM leukemia = tested on: CCRF-CEM leukemia
SF-539 CNS = tested on: SF-539 CNS
SF-295 CNS = tested on: SF-295 CNS
EKVX NSCLC = tested on: EKVX NSCLC
SNB-19 CNS = tested on: SNB-19 CNS
HT29 colon = tested on: HT29 colon
SK-OV-3 ovarian = tested on: SK-OV-3 ovarian
M14 melanoma = tested on: M14 melanoma
PC-3 prostate = tested on: PC-3 prostate
UO-31 renal = tested on: UO-31 renal
MDA-MB-231 breast = tested on: MDA-MB-231 breast
U251 CNS = tested on: U251 CNS
UACC-257 melanoma = tested on: UACC-257 melanoma
RPMI-8226 leukemia = tested on: RPMI-8226 leukemia
NCI-H522 lung = tested on: NCI-H522 lung
OVCAR-4 ovarian = tested on: OVCAR-4 ovarian
NCI/ADR-RES ovarian = tested on: NCI/ADR-RES ovarian
DU-145 prostate = tested on: DU-145 prostate
NCI-H23 lung = tested on: NCI-H23 lung
UACC-62 melanoma = tested on: UACC-62 melanoma
MCF7 breast = tested on: MCF7 breast

Compound: Nc1ncc2ccc3c(ccn3C3CC(O)C(CO)O3)c2n1 (stereo not given)
- GI50 (T-47D breast): > 100 µM
- TGI (T-47D breast): > 100 µM
- GI50 (NCI-H460 lung): > 100 µM
- TGI (NCI-H460 lung): > 100 µM
- GI50 (LOX IMVI melanoma): > 100 µM
- TGI (LOX IMVI melanoma): > 100 µM
- GI50 (OVCAR-3 ovarian): > 100 µM
- TGI (OVCAR-3 ovarian): > 100 µM
- GI50 (HCT-116 colon): > 100 µM
- TGI (HCT-116 colon): > 100 µM
- GI50 (SK-MEL-28 melanoma): > 100 µM
- TGI (SK-MEL-28 melanoma): > 100 µM
- GI50 (OVCAR-5 ovarian): > 100 µM
- TGI (OVCAR-5 ovarian): > 100 µM
- GI50 (SN12C renal): > 100 µM
- TGI (SN12C renal): > 100 µM
- GI50 (786-0 renal): > 100 µM
- TGI (786-0 renal): > 100 µM
- GI50 (MDA-MB-435): > 100 µM
- TGI (MDA-MB-435): > 100 µM
- GI50 (A549 NSCLC): > 100 µM
- TGI (A549 NSCLC): > 100 µM
- GI50 (SK-MEL-5 melanoma): > 100 µM
- TGI (SK-MEL-5 melanoma): > 100 µM
- GI50 (IGROV1 ovarian): > 100 µM
- TGI (IGROV1 ovarian): > 100 µM
- GI50 (HS 578T breast): > 100 µM
- TGI (HS 578T breast): > 100 µM
- GI50 (RXF 393 renal): > 100 µM
- TGI (RXF 393 renal): > 100 µM
- GI50 (NCI-H226 lung): > 100 µM
- TGI (NCI-H226 lung): > 100 µM
- GI50 (A498 renal): 18.3 µM
- TGI (A498 renal): > 100 µM
- GI50 (BT-549 breast): > 100 µM
- TGI (BT-549 breast): > 100 µM
- GI50 (HCC-2998 colon): > 100 µM
- TGI (HCC-2998 colon): > 100 µM
- GI50 (CAKI-1 renal): > 100 µM
- TGI (CAKI-1 renal): > 100 µM
- GI50 (HCT-15 colon): > 100 µM
- TGI (HCT-15 colon): > 100 µM
- GI50 (HOP-92 NSCLC): > 100 µM
- TGI (HOP-92 NSCLC): > 100 µM
- GI50 (SF-268 CNS): > 100 µM
- TGI (SF-268 CNS): > 100 µM
- GI50 (SK-MEL-2 melanoma): > 100 µM
- TGI (SK-MEL-2 melanoma): > 100 µM
- GI50 (COLO 205 colon): > 100 µM
- TGI (COLO 205 colon): > 100 µM
- GI50 (OVCAR-8 ovarian): > 100 µM
- TGI (OVCAR-8 ovarian): > 100 µM
- GI50 (SW-620 colon): > 100 µM
- TGI (SW-620 colon): > 100 µM
- GI50 (SNB-75 CNS): 42.4 µM
- TGI (SNB-75 CNS): > 100 µM
- GI50 (HOP-62 NSCLC): > 100 µM
- TGI (HOP-62 NSCLC): > 100 µM
- GI50 (CCRF-CEM leukemia): > 100 µM
- TGI (CCRF-CEM leukemia): > 100 µM
- GI50 (SF-539 CNS): > 100 µM
- TGI (SF-539 CNS): > 100 µM
- GI50 (SF-295 CNS): > 100 µM
- TGI (SF-295 CNS): > 100 µM
- GI50 (EKVX NSCLC): > 100 µM
- TGI (EKVX NSCLC): > 100 µM
- GI50 (SNB-19 CNS): > 100 µM
- TGI (SNB-19 CNS): > 100 µM
- GI50 (HT29 colon): > 100 µM
- TGI (HT29 colon): > 100 µM
- GI50 (SK-OV-3 ovarian): > 100 µM
- TGI (SK-OV-3 ovarian): > 100 µM
- GI50 (M14 melanoma): > 100 µM
- TGI (M14 melanoma): > 100 µM
- GI50 (PC-3 prostate): > 100 µM
- TGI (PC-3 prostate): > 100 µM
- GI50 (UO-31 renal): > 100 µM
- TGI (UO-31 renal): > 100 µM
- GI50 (MDA-MB-231 breast): > 100 µM
- TGI (MDA-MB-231 breast): > 100 µM
- GI50 (U251 CNS): > 100 µM
- TGI (U251 CNS): > 100 µM
- GI50 (UACC-257 melanoma): > 100 µM
- TGI (UACC-257 melanoma): > 100 µM
- GI50 (RPMI-8226 leukemia): > 100 µM
- TGI (RPMI-8226 leukemia): > 100 µM
- GI50 (NCI-H522 lung): > 100 µM
- TGI (NCI-H522 lung): > 100 µM
- GI50 (OVCAR-4 ovarian): > 100 µM
- TGI (OVCAR-4 ovarian): > 100 µM
- GI50 (NCI/ADR-RES ovarian): > 100 µM
- TGI (NCI/ADR-RES ovarian): > 100 µM
- GI50 (DU-145 prostate): > 100 µM
- TGI (DU-145 prostate): > 100 µM
- GI50 (NCI-H23 lung): > 100 µM
- TGI (NCI-H23 lung): > 100 µM
- GI50 (UACC-62 melanoma): > 100 µM
- TGI (UACC-62 melanoma): > 100 µM
- GI50 (MCF7 breast): 87.2 µM
- TGI (MCF7 breast): > 100 µM
